Reference: publication PMC11045757, “Group 3 medulloblastoma transcriptional networks collapse under domain specific EP300/CBP inhibition” (Nature Communications, 2024)

Tested on: 460 barcoded cancer cell lines
Experiment: PRISM pooled barcoded cancer cell line growth screen, 10-point dose-response, 5 days, AUC
Type: cell-based
Set-up: scale not given here
Excerpt: Several small molecule inhibitors of distinct protein domains of EP300/CBP are available, though the majority target the histone acetyltransferase domain (HAT) or bromodomain (BRD)[5],[10],[21],[22]. […] We used these tools to investigate the relative contribution of the EP300/CBP BRD or HAT domain to tumor cell growth (Fig. 1a). To do so, we performed 10-point, dose-response growth assays using mixed pools of 460 barcoded cancer cell lines, over five days of treatment in vitro[33],[34]. Growth was measured using an area-under-the-curve (AUC) approach (Supplementary Table 1, Supplementary Fig. 1a). […] Given potential differences in compound penetration and solubility, and to compare the relative cell line and tumor-specific effects of these two compounds in assays performed non-simultaneously, we performed a median normalization of each dataset (Supplementary Table 2).

Compound `CNC(=O)Nc1ccc2c(c1)CCC21OC(=O)N(CC(=O)N(Cc2ccc(F)cc2)C(C)C(F)(F)F)C1=O` (stereo not shown) [Compound A485] has an AUC (22RV1, Prostate Cancer) of 0.5834, an AUC (42MGBA, Glioma) of 0.8468 and an AUC (143B, Osteosarcoma) of 1. For the same compound, the AUC (639V, Bladder Cancer) was 0.8274, the AUC (647V, Bladder Cancer) was 0.6672 and the AUC (697, B-cell Leukemia) was 0.5617. It also gave an AUC (769P, Kidney Cancer) of 0.6332, an AUC (5637, Bladder Cancer) of 0.8843 and an AUC (8305C, Thyroid Cancer) of 0.7544. For the same compound, the AUC (A101D, Melanoma) was 0.9258, the AUC (A204, Rhabdoid) was 0.6513 and the AUC (A253, Head and Neck Cancer) was 0.8228. For the same compound, the AUC (A375, Melanoma) was 0.749, the AUC (A427, Lung Cancer) was 0.6968 and the AUC (A673, Ewing Sarcoma) was 1. It also gave an AUC (A1207, Glioblastoma) of 0.7712, an AUC (ACHN, Kidney Cancer) of 0.5417 and an AUC (AGS, Gastric Cancer) of 0.7849. It also gave an AUC (AM38, Glioblastoma) of 1, an AUC (AN3CA, Endometrial/Uterine Cancer) of 0.8692 and an AUC (AU565, Breast Cancer) of 0.7944. The AUC (BDCM, AML) was 0.9026, the AUC (BEN, Lung Cancer) was 0.8869 and the AUC (BFTC905, Bladder Cancer) was 0.6715. It also gave an AUC (BHT101, Thyroid Cancer) of 0.6133, an AUC (BICR16, Head and Neck Cancer) of 0.6804 and an AUC (BICR18, Head and Neck Cancer) of 1. For the same compound, the AUC (BICR22, Head and Neck Cancer) was 0.7556, the AUC (BICR31, Head and Neck Cancer) was 0.7077 and the AUC (BICR56, Head and Neck Cancer) was 0.6769. For the same compound, the AUC (BT16, Rhabdoid) was 1, the AUC (BT474, Breast Cancer) was 0.9498 and the AUC (C32, Melanoma) was 0.9339. It also gave an AUC (C8166, Lymphoma) of 0.6916, an AUC (CADOES1, Ewing Sarcoma) of 0.6865 and an AUC (CAKI1, Kidney Cancer) of 0.6849. The AUC (CAL27, Head and Neck Cancer) was 0.7545, the AUC (CAL54, Kidney Cancer) was 0.4813 and the AUC (CAL62, Thyroid Cancer) was 0.8629. For the same compound, the AUC (CAL78, Chondrosarcoma) was 0.8774, the AUC (CAL120, Breast Cancer) was 0.8951 and the AUC (CAOV3, Ovarian Cancer) was 0.8124. For the same compound, the AUC (CBAGPN, Ewing Sarcoma) was 0.8343, the AUC (CCK81, Colon/Colorectal Cancer) was 0.7195 and the AUC (CHAGOK1, Lung Cancer) was 0.9372. The AUC (CHL1, Melanoma) was 0.6205, the AUC (CHLA06ATRT, Rhabdoid) was 1 and the AUC (CHLA10, Ewing Sarcoma) was 0.7781. The AUC (CHLA15, Neuroblastoma) was 0.7188, the AUC (CHLA57, Ewing Sarcoma) was 0.9584 and the AUC (CHP212, Neuroblastoma) was 0.8072. It also gave an AUC (CI1, B-cell Lymphoma) of 0.7779, an AUC (CJM, Melanoma) of 0.6266 and an AUC (CL11, Colon/Colorectal Cancer) of 0.6639. The AUC (CL34, Colon/Colorectal Cancer) was 0.6654, the AUC (CMLT1, CML) was 0.6607 and the AUC (COGAR359, Rhabdoid) was 1. It also gave an AUC (COGE352, Ewing Sarcoma) of 1, an AUC (COLO320, Colon/Colorectal Cancer) of 1 and an AUC (COLO678, Colon/Colorectal Cancer) of 0.7938. For the same compound, the AUC (COLO783, Melanoma) was 0.9045, the AUC (COLO792, Melanoma) was 0.7929 and the AUC (CORL23, Lung Cancer) was 0.831. It also gave an AUC (CORL105, Lung Cancer) of 0.7616, an AUC (COV318, Ovarian Cancer) of 0.7366 and an AUC (COV434, Ovarian Cancer) of 0.6392. It also gave an AUC (COV644, Ovarian Cancer) of 0.7528, an AUC (CW2, Colon/Colorectal Cancer) of 0.9324 and an AUC (CW9019, Rhabdomyosarcoma) of 0.6452. For the same compound, the AUC (DAOY, Medulloblastoma) was 0.7773, the AUC (DEL, Lymphoma) was 0.7007 and the AUC (DETROIT562, Head and Neck Cancer) was 0.6189. It also gave an AUC (DKMG, Glioblastoma) of 0.8817, an AUC (DL, Rhabdoid) of 0.6996 and an AUC (DMS53, Lung Cancer) of 0.6382. It also gave an AUC (DMS273, Lung Cancer) of 0.7762, an AUC (DND41, T-acute leukemia) of 0.7502 and an AUC (DU145, Prostate Cancer) of 0.8463. It also gave an AUC (DU4475, Breast Cancer) of 0.4233, an AUC (DV90, Lung Cancer) of 0.6128 and an AUC (EB1, Lymphoma) of 1. It also gave an AUC (EBC1, Lung Cancer) of 0.8735, an AUC (ECC10, Gastric Cancer) of 0.8444 and an AUC (ECGI10, Esophageal Cancer) of 0.8435. The AUC (EFE184, Endometrial/Uterine Cancer) was 1, the AUC (EFM19, Breast Cancer) was 0.5992 and the AUC (EFO21, Ovarian Cancer) was 0.9024. It also gave an AUC (EM2, CML) of 0.902, an AUC (EN, Endometrial/Uterine Cancer) of 0.9736 and an AUC (ES2, Ovarian Cancer) of 0.7477. For the same compound, the AUC (ESS1, Endometrial/Uterine Cancer) was 0.9044, the AUC (EW8, Ewing Sarcoma) was 0.7371 and the AUC (EWS502, Ewing Sarcoma) was 0.6563. The AUC (FADU, Head and Neck Cancer) was 0.9573, the AUC (FTC133, Thyroid Cancer) was 0.8254 and the AUC (FTC238, Thyroid Cancer) was 0.7484. It also gave an AUC (G292CLONEA141B1, Osteosarcoma) of 1, an AUC (G361, Melanoma) of 0.6803 and an AUC (G401, Rhabdoid) of 1. The AUC (G402, Rhabdoid) was 0.9975, the AUC (GB1, Glioblastoma) was 0.7582 and the AUC (GCT, Pleomorphic Sarcoma) was 0.8933. For the same compound, the AUC (GI1, Glioblastoma) was 0.757, the AUC (GOS3, Glioblastoma) was 0.9534 and the AUC (GP2D, Colon/Colorectal Cancer) was 0.7575. For the same compound, the AUC (GRANTA519, Lymphoma) was 0.8493, the AUC (GSS, Gastric Cancer) was 0.6579 and the AUC (HARA, Lung Cancer) was 0.7108. For the same compound, the AUC (HCC33, Lung Cancer) was 0.908, the AUC (HCC38, Breast Cancer) was 0.7435 and the AUC (HCC44, Lung Cancer) was 0.6558. It also gave an AUC (HCC56, Colon/Colorectal Cancer) of 0.6212, an AUC (HCC78, Lung Cancer) of 0.7931 and an AUC (HCC95, Lung Cancer) of 0.8823. For the same compound, the AUC (HCC515, Lung Cancer) was 0.6901.
